# From US20130303509A1, “NAMPT INHIBITORS” (AbbVie Inc., priority 2012, published 2013)
# pIC50: −log10 of the molar value.
# Tested on: PC3 cells
# Assay: NAMPT Cell Proliferation Assay
# Type: cell-based
# Details: Homo sapiens, PC-3, 120 h, 5 days incubation, cell viability by Cell Titer Glo
# How it was run: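 Seeded at 500 cells/well in RPMI with 10% heat-inactivated FBS and left to attach overnight at 37° C, 5% CO2. Compounds were added as 10-fold dilutions […] for 5 days, then viability was read by CellTiter-Glo. IC50s came from sigmoidal fits of percent inhibition.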
row,Structure (SMILES),pIC50
1,"O=C(Nc1ccc(OC2CCN(C(=O)c3ccccc3Cl)CC2)cc1)C1CN(c2cccnn2)C1 [Example 211, N-(4-{[1-(2-chlorobenzoyl)piperidin-4-yl]oxy}phenyl)-1-(pyridazin-3-yl)azetidine-3-carboxamide]",8.23
2,"Cc1ncccc1N1CC(C(=O)Nc2ccc(C3CCN(C(=O)C(C)(C)O)CC3)cc2)C1 [Example 71, N-{4-[1-(2-hydroxy-2-methylpropanoyl)piperidin-4-yl]phenyl}-1-(2-methylpyridin-3-yl)azetidine-3-carboxamide]",7.14
3,"O=C(Nc1ccc(C2CCN(C(=O)c3ccsc3)CC2)cc1)[C@H]1CCN(c2cccnn2)C1 [Example 655, (3S)-1-(pyridazin-3-yl)-N-{4-[1-(thiophen-3-ylcarbonyl)piperidin-4-yl]phenyl}pyrrolidine-3-carboxamide]",9.32
4,"CC(C)C(=O)N1CC[C@@H](Oc2ccc(NC(=O)C3CN(c4ccnnc4)C3)cc2)C1 [Example 471, N-(4-{[(3R)-1-(2-methylpropanoyl)pyrrolidin-3-yl]oxy}phenyl)-1-(pyridazin-4-yl)azetidine-3-carboxamide]",7.14
5,"O=C(Nc1ccc(O[C@@H]2CCN(C(=O)c3cccc(C(F)(F)F)c3)C2)cc1)C1CN(c2cccnn2)C1 [Example 495, 1-(pyridazin-3-yl)-N-[4-({(3R)-1-[3-(trifluoromethyl)benzoyl]pyrrolidin-3-yl}oxy)phenyl]azetidine-3-carboxamide]",8.15
6,"O=C(Nc1ccc(OC2CN(C(=O)Cc3ccc(F)cc3)C2)cc1)C1CN(c2ccnnc2)C1 [Example 203, N-[4-({1-[(4-fluorophenyl)acetyl]azetidin-3-yl}oxy)phenyl]-1-(pyridazin-4-yl)azetidine-3-carboxamide]",6.22
7,"O=C(Nc1ccc(O[C@@H]2CCN(C(=O)Cc3cccc(C(F)(F)F)c3)C2)cc1)C1CN(c2cccnn2)C1 [Example 512, 1-(pyridazin-3-yl)-N-(4-{[(3R)-1-{[3-(trifluoromethyl)phenyl]acetyl}pyrrolidin-3-yl]oxy}phenyl)azetidine-3-carboxamide]",7.81
8,"CC(C)(C)CC(=O)N1CCC(c2ccc(NC(=O)C3CN(c4cccnn4)C3)c(F)c2)CC1 [Example 835, N-{4-[1-(3,3-dimethylbutanoyl)piperidin-4-yl]-2-fluorophenyl}-1-(pyridazin-3-yl)azetidine-3-carboxamide]",8.63
9,"CCC(C)C(=O)N1CCC(c2ccc(NC(=O)C3CN(c4cccnn4)C3)cc2)CC1 (centres unmarked) [Example 319, N-{4-[1-(2-methylbutanoyl)piperidin-4-yl]phenyl}-1-(pyridazin-3-yl)azetidine-3-carboxamide]",8.91
10,"O=C(Nc1ccc(OC2CCN(C(=O)c3cccc(F)c3)CC2)cc1)C1CN(c2cccnn2)C1 [Example 231, N-(4-{[1-(3-fluorobenzoyl)piperidin-4-yl]oxy}phenyl)-1-(pyridazin-3-yl)azetidine-3-carboxamide]",8.06
11,"O=C(Nc1ccc(OC2CCN(C(=O)Cc3ccccc3F)CC2)cc1)C1CN(c2ccnnc2)C1 [Example 308, N-[4-({1-[(2-fluorophenyl)acetyl]piperidin-4-yl}oxy)phenyl]-1-(pyridazin-4-yl)azetidine-3-carboxamide]",7.21
12,"O=C(Nc1ccc(C2CCN(C(=O)c3ccsc3)CC2)cc1)C1CN(c2cccnn2)C1 [Example 425, 1-(pyridazin-3-yl)-N-{4-[1-(thiophen-3-ylcarbonyl)piperidin-4-yl]phenyl}azetidine-3-carboxamide]",9.04
13,"O=C(Nc1ccc(C2CCN(C(=O)CC3CC3)CC2)cc1)[C@H]1CCN(c2cccnn2)C1 [Example 643, (3S)-N-{4-[1-(cyclopropylacetyl)piperidin-4-yl]phenyl}-1-(pyridazin-3-yl)pyrrolidine-3-carboxamide]",8.07
14,"CC(=O)N1CCC(Oc2ccc(NC(=O)C3CN(c4ccnnc4)C3)cc2)CC1 [Example 282, N-{4-[(1-acetylpiperidin-4-yl)oxy]phenyl}-1-(pyridazin-4-yl)azetidine-3-carboxamide]",6.20
